Earlier results as cited in US5672605A, “Macrolide immunomodulators” (Abbott Laboratories, priority 1995, dated 1997).

Legend:
[1] = rapamycin alone or in combination with picibanil
Candida albicans = details: particularly against Candida albicans, both in vitro and in vivo
[2] = tested on: experimental allergic encephalomyelitis model, a model for multiple sclerosis; details: in vivo
[3] = tested on: adjuvant arthritis model, a model for rheumatoid arthritis; details: in vivo

| SMILES | binding to FKBP-12, in words (FKBP-12) | antitumor activity, in words [1] | antifungal activity, in words (Candida albicans) | immunosuppressant effect in experimental allergic encephalomyelitis model [2] | inhibition of the formation of IgE-like antibodies (IgE-like antibodies) | immunosuppressant effect in adjuvant arthritis model [3] |
| --- | --- | --- | --- | --- | --- | --- |
| C=CC[C@@H]1/C=C(\C)C[C@H](C)C[C@H](OC)[C@H]2O[C@@](O)(C(=O)C(=O)N3CCCC[C@H]3C(=O)O[C@H](/C(C)=C/[C@@H]3CC[C@@H](O)[C@H](OC)C3)[C@H](C)[C@@H](O)CC1=O)[C@H](C)C[C@@H]2OC [FK-506] | binds to FKBP-12 | – | – | – | – | – |
| CO[C@H]1C[C@@H]2CC[C@@H](C)[C@@](O)(O2)C(=O)C(=O)N2CCCC[C@H]2C(=O)O[C@H]([C@H](C)C[C@@H]2CC[C@@H](O)[C@H](OC)C2)CC(=O)[C@H](C)/C=C(\C)[C@@H](O)[C@@H](OC)C(=O)[C@H](C)C[C@H](C)/C=C/C=C/C=C/1C [rapamycin] | binds to FKBP-12 | antitumor activity | antifungal activity | effective as an immunosuppressant | effectively inhibit the formation of IgE-like antibodies | effective as an immunosuppressant |
